Data: patent US20240329033A1, “MonoMac-1 Cells Expressing CD16 and CD163” (Temple University-Of The Commonwealth System of Higher …, priority 2016, published 2024)

B1: macrophage colony-stimulating factor (protein, UniProt P09603 33-554, looked up)
Macrophage colony-stimulating …: EEVSEYCSHMIGSGHLQSLQRLIDSQMETSCQITFEFVDQEQLKDPVCYLKKAFLLVQDIMEDTMRFRDNTPNAIAIVQLQELSLRLKSCFTKDYEEHDKACVRTFYETPLQLLEKVKNVFNETKNLLDKDWNIFSKNCNNSFAECSSQDVVTKPDCNCLYPKAIPSSDPASVSPHQPLAPSMAPVAGLTWEDSEGTEGSSLLPGEQPLHTVDPGSAKQRPPRSTCQSFEPPETPVVKDSTIGGSPQPRPSVGAFNPGMEDILDSAMGTNWVPEEASGEASEIPVPQGTELSPSRPGGGSMQTEPARPSNFLSASSPLPASAKGQQPADVTGTALPRVGPVRPTGQDWNHTPQKTDHPSALLRDPPEPGSPRISSLRPQGLSNPSTLSAQPQLSRSHSSGSVLPLGELEGRRSTRDRRSPAEPEGGPASEGAARPLPRFNSVPLTDTGHERQSEGSFSPQLQESVFHLLVPSVILVLLAVGGLLFYRWRRRSHQEPQRADSPLEQPEGSPLTQDDRQVELPV
B2: IFN γ: cytokine inducer of IDO enzyme induction (protein, UniProt P01579 24-161, looked up)
Interferon gamma: QDPYVKEAENLKKYFNAGHSDVADNGTLFLGILKNWKEESDRKIMQSQIVSFYFKLFKNFKDDQSIQKSVETIKEDMNVKFFNSNKKKRDDFEKLTNYSVTDLNVQRKAIHELIQVMAELSPAAKTGKRKRSQMLFRG

What was measured:
Assay type in all cases: cell-based, human
MONO-MAC-1 cells = test: Flow cytometry of CD163, CD16 and CD4 expression in differentiated MONO-MAC-1 cells; conditions: for expression of CD163+ / expression of CD16+: added for 24 hours to MonoMac-1 treated with PMA+DEX+MCSF+LPS; for expression of CD163+: FIG. 6A; for expression of CD16+: FIG. 6B
Method: MONO-MAC-1 cells were cultured at 37° C. in a humidified atmosphere containing 5% CO2 using RPM1 1640 medium supplemented with 10% heat-inactivated fetal bovine serum (FBS, Sigma) and 1% of stable glutamine, 1 mM sodium pyruvic acid and 1×MEM non-essential amino acids were added. Cells were seeded at a density of 0.5×10^6 cells/ml and were sub cultured upon reaching 1× 10^6 cells/ml. Medium was changed every 2 to 3 days. […] Data were analyzed with GraphPad Prism (version 6) soft-ware. Flow cytometric measurements were performed using four colors FACSCalibur (Becton Dickinson).

MCP-1 = MCP-1 concentration in MonoMac-1 culture; conditions: FIG. 8
[1] = test system: tryptophan catabolism/IDO activity in MonoMac-1; test: Tryptophan catabolism/IDO activity (kynurenine/tryptophan in cell culture supernatant) in MonoMac-1; conditions: for kynurenine/tryptophan ratio: cell culture supernatant, FIG. 7C
From the text: A major mechanism for inflammation and disease pathogenesis involves tryptophan catabolism via the kynurenine pathway. As such we evaluated cytokine inducers of IDO enzyme induction, a limiting step in the kynurenine pathway.
TNF α and IFN γ induce tryptophan catabolism/IDO activity as determined by increase in the kynurenine/tryptophan ratio in cell culture supernatant, in response to TNF alpha and IFN gamma treatment (FIG. 7).

[2] = induction: PMA 20 ng/ml ± LPS 10 ng/ml 3 days, then MCSF 5 ng/ml + DEX 200 ng/ml 4 days, FIG. 1A

Molecule	expression of CD163+ monocytes (MONO-MAC-1 cells; [2])	MCP-1 concentration (MCP-1)	kynurenine/tryptophan ratio [1]	expression of CD163+ (MONO-MAC-1 cells)	expression of CD16+ (MONO-MAC-1 cells)	other results
lipopolysaccharide [LPS, reference compound]	has the most effect					percentage of CD16+CD163+ monocytes (MONO-MAC-1 cells; induction: PMA ± LPS 3 days, then DEX+MCSF 4 days, FIG. 2, FIG. 3): required to have maximum effect
FC(F)(F)c1ccc(CNc2ccc(Cc3c[nH]c4ncc(Cl)cc34)cn2)cn1 [PLX3397, reference compound]						expression of CD16+ monocytes (MONO-MAC-1 cells; antagonist 500 nM added after PMA/LPS 72 h and 4 days MCSF+DEX, FIG. 4A): reduction in expression; expression of CD4+ monocytes (MONO-MAC-1 cells; antagonist 500 nM added after PMA/LPS 72 h and 4 days MCSF+DEX, FIG. 4B): reduction in expression; expression of CD163+ monocytes (MONO-MAC-1 cells; antagonist 500 nM added after PMA/LPS 72 h and 4 days MCSF+DEX, FIG. 4C): significantly decreases expression
TNF α		increase MCP-1	increase	further increase the expression	further increase the expression	
B1	promotes expression					
B2		increase MCP-1	increase	further increase the expression	further increase the expression	tryptophan concentration ([1]; added to the combination of PMA, LPS, MCSF and DEX, FIG. 7A): decreased; kynurenine concentration ([1]; added to the combination of PMA, LPS, MCSF and DEX, FIG. 7B): increased
